The values that follow come from patent US20230285389A1, “USE OF CSF-1R KINASE INHIBITOR” (Shanghai Runshi Medical Technology Co., Ltd, priority 2020, published 2023).

A word on the IC50: it is the point on the concentration scale where inhibition reaches its midpoint.

Test [1] concerns mouse colon cancer CT-26 xenograft. In words: Growth of subcutaneous CT-26 xenografts, combination with anti-PD-1 antibody. Type of test: in vivo, BALB/c mice. As to conditions: compound I alone (+ Rat IgG2a isotype), 5 mg/kg orally once a day, 12 days. The method, then: CT-26 cells were subcutaneously inoculated into the right axillary fossa of BALB/c mice at a cell number of 5 × 10^6 per mouse. When the tumor cells successfully formed subcutaneous xenografts in the mice which further grew to an average volume of approximately 100 mm^3, the mice were randomly assigned to the dosing group and the control group. For the anti-PD-1 antibody group, an anti-PD-1 antibody (Bio X Cell Company, InVivoMAb anti-mouse PD-1 (CD279) (catalog : BE0273)) was administered […] once every three days at 10 mg/kg for 12 days. The control group was administrated the same amount of Hamster Ig (Rat IgG2a), as the isotype control of the anti-PD-1 antibody, and the administration route, dosage and frequency were same as those for the anti-PD-1 antibody group. […] Throughout the experiment, the tumor volume and the mice’s body weights were measured twice a week.
The tumor volume (TV) was calculated as TV = ½×a×b^2, where “a” and “b” are the length and width of the xenograft, respectively.
The relative tumor volume (RTV) was calculated from the results of the measurement according to the following equation:
RTV = Vt/V0, where V0 was the tumor volume measured at the beginning of administration (i.e., d0) and Vt was the tumor volume measured at each point.
The evaluation index of the anti-tumor activity was tumor growth inhibition ratio TGI (%), which was calculated as: […]

Test [2] has as its system CSF-1-induced human macrophages (PBMC-derived CD14+ monocytes). The experiment in a line: Survival of CSF-1-induced human macrophages from PBMC (CCK-8). The format is cell-based. The conditions noted are these: Homo sapiens, 168 h, read-out: IC50 inhibition of cell survival, PBMC (CSF-1). The method, then: Cryopreserved human-derived peripheral blood (peripheral blood from healthy donors) mononuclear cells (PBMCs) were taken out of liquid nitrogen for recovery. After recovery, the cells were re-suspended at 50 million/mL with the running buffer and DNAase I was added at a final concentration of 100 µg/mL and the plate was allowed for incubation for 15 min at room temperature. After centrifugation at 300 g for 5 min, the supernatant was discarded. The pellet was re-suspended at 50 million cells/mL with the running buffer, and the suspension was filtered through a 70 µM filter screen into a flow tube. The cells were sorted by using CD14+ monocyte negative selection beads sorting kit from […] company. According to the manufacture’s instructions, the specific experimental procedures were as follows.
After cells were re-suspended at 50 million cells/mL, 50 µL of the cocktail was added to each one mL of samples. The samples were incubated at room temperature for 5 min. The magnetic beads were vortexed for 30 sec, and added to the samples. The samples were incubated for further 5 min. The sample volumes were made up to 2.5 mL. The samples were placed on a magnetic frame ([…], #18000) for 2.5 min. […] The plate was placed in an incubator at 37° C. for 2-4 h, and then was read with an adjustable wavelength microplate reader setting at a wavelength of 450 nm.

As to `CNC(=O)c1cccc2cc(Oc3ccnc(NC(=O)c4ccc(N5C[C@@H](C)N[C@@H](C)C5)cc4)c3)ccc12` [Compound I], the “TGI / tumor inhibition rate” value in test [1] worked out at 45.8%. For the same compound, in test [2], the IC50 is 0.0305 ± 0.0051 µM.
